Laboratory results as given in patent US20060247286A1, “Oxazolidinone antibiotics and derivatives thereof” (priority 2003, published 2006).
≈ marks a conversion by molar mass, not a printed value.

How the values were obtained:
Format in all cases: cell-based
[1] = system: Staphylococcus aureus Smith; test: MIC, agar dilution method, Mueller-Hinton agar; conditions: 1×10^4 cfu/spot, 35° C., 24 hours
Description: (§1) The following in vitro results were obtained based on an agar dilution method except for C. pneumoniae. The activity is presented as the minimum inhibitory concentration (MIC).
(§2) S. aureus and M. catarrhalis were tested on Mueller-Hinton agar, using an approximate inoculum of 1×10^4 cfu/spot an incubation temperature of 35° C. for 24 hours. The MIC was defined as the lowest concentration at which no visible bacterial growth was observed.

[2] = system: Staphylococcus aureus MR (methicillin resistant); test: MIC, agar dilution method, Mueller-Hinton agar; conditions: 1×10^4 cfu/spot, 35° C., 24 hours
Description: as §1, §2

[3] = system: Moraxella catarrhalis ATCC25238; test: MIC, agar dilution method, Mueller-Hinton agar; conditions: 1×10^4 cfu/spot, 35° C., 24 hours
Description: as §1, §2

[4] = system: Staphylococcus aureus CR (chloramphenicol resistant); test: MIC, agar dilution method, Mueller-Hinton agar; conditions: 1×10^4 cfu/spot, 35° C., 24 hours
Description: as §1, §2

[5] = system: Streptococcus pneumoniae IID553; test: MIC, agar dilution method, Mueller-Hinton agar with 5% defibrinated horse blood; conditions: 35° C., 5% CO2, 24 hours
Description: as §1
as §2, with “Streptococci” for “S. aureus”, “enterococci” for “M. catarrhalis”, “agar supplemented with 5% defibrinated horse blood,” for “agar,”, “C. in an atmosphere of 5% CO2” for “C.”

[6] = system: Streptococcus pneumoniae PRQR (penicillin resistant, quinolone resistant); test: as above; conditions: 35° C., 5% CO2, 24 hours
Description: as §1
as §2, with “Streptococci” for “S. aureus”, “enterococci” for “M. catarrhalis”, “agar supplemented with 5% defibrinated horse blood,” for “agar,”, “C. in an atmosphere of 5% CO2” for “C.”

[7] = system: Streptococcus pyogenes IID692; test: as above; conditions: 35° C., 5% CO2, 24 hours
Description: as §1
as §2, with “Streptococci” for “S. aureus”, “enterococci” for “M. catarrhalis”, “agar supplemented with 5% defibrinated horse blood,” for “agar,”, “C. in an atmosphere of 5% CO2” for “C.”

[8] = system: Enterococcus faecium VRQR (vancomycin resistant, quinolone resistant); test: as above; conditions: 35° C., 5% CO2, 24 hours
Description: as §1
as §2, with “Streptococci” for “S. aureus”, “enterococci” for “M. catarrhalis”, “agar supplemented with 5% defibrinated horse blood,” for “agar,”, “C. in an atmosphere of 5% CO2” for “C.”

| Compound | MIC [1] [µg/mL] | MIC [2] [µg/mL] | MIC [3] [µg/mL] | MIC [4] [µg/mL] | MIC [5] [µg/mL] | MIC [6] [µg/mL] | MIC [7] [µg/mL] | MIC [8] [µg/mL] |
| --- | --- | --- | --- | --- | --- | --- | --- | --- |
| CC(=O)NC[C@H]1CN(c2ccc([C@@]3(C#N)[C@@H]4CCC[C@@H]43)cc2)C(=O)O1 [Example 1, N-[5(S)-3-[4-[(1α,5α,6β)-(6-Cyanobicyclo[3.1.0]hexan-6-yl)]phenyl]-2-oxooxazolidin-5-ylmethyl]acetamide] | 0.25 (≈ 0.737 µM) | 0.25 (≈ 0.737 µM) | 0.5 (≈ 1.47 µM) | 2 (≈ 5.89 µM) | 0.5 (≈ 1.47 µM) | 0.25 (≈ 0.737 µM) | 0.5 (≈ 1.47 µM) | 0.25 (≈ 0.737 µM) |
| CC(=O)NC[C@H]1CN(c2ccc([C@@]3(C#N)[C@@H]4CN(C(=O)CO)C[C@@H]43)cc2)C(=O)O1 [Example 8, N-[5(S)-3-[4-[(1α,5α,6β)-(6-Cyano-3-hydroxyacetyl-3-azabicyclo[3.1.0]hexan-6-yl)]phenyl]-2-oxooxazolidin-5-ylmethyl]acetamide] | 1 (≈ 2.51 µM) | 1 (≈ 2.51 µM) | 2 (≈ 5.02 µM) | 2 (≈ 5.02 µM) | 0.5 (≈ 1.25 µM) | 0.5 (≈ 1.25 µM) | 0.5 (≈ 1.25 µM) | 0.5 (≈ 1.25 µM) |
| CC(=O)NC[C@H]1CN(c2ccc([C@@]3(C#N)[C@@H]4CN(S(C)(=O)=O)C[C@@H]43)cc2)C(=O)O1 [Example 9, N-[5(S)-3-[4-[(1α,5α,6β)-(6-Cyano-3-methanesulfonyl-3-azabicyclo[3.1.0]hexan-6-yl)]phenyl]-2-oxooxazolidin-5-ylmethyl]acetamide] | 0.5 (≈ 1.19 µM) | 0.5 (≈ 1.19 µM) | 2 (≈ 4.78 µM) | 1 (≈ 2.39 µM) | 0.5 (≈ 1.19 µM) | 0.5 (≈ 1.19 µM) | 0.5 (≈ 1.19 µM) | 0.5 (≈ 1.19 µM) |
| CC(=O)NC[C@H]1CN(c2ccc([C@@]3(C#N)[C@@H]4CN(C#N)C[C@@H]43)cc2)C(=O)O1 [Example 11, N-[5(S)-3-[4-[(1α,5α,6β)-(3,6-Dicyano-3-azabicyclo[3.1.0]hexan-6-yl)]phenyl]-2-oxooxazolidin-5-ylmethyl]acetamide] | 0.25 (≈ 0.684 µM) | 0.5 (≈ 1.37 µM) | 1 (≈ 2.74 µM) | 1 (≈ 2.74 µM) | 0.25 (≈ 0.684 µM) | 0.25 (≈ 0.684 µM) | 0.125 (≈ 0.342 µM) | 0.25 (≈ 0.684 µM) |
| CC(=O)NC[C@H]1CN(c2ccc(N3CCOCC3)c(F)c2)C(=O)O1 [Linezolid, reference compound] | 1 (≈ 2.96 µM) | 1 (≈ 2.96 µM) | 4 (≈ 11.9 µM) | 16 (≈ 47.4 µM) | 2 (≈ 5.93 µM) | 1 (≈ 2.96 µM) | 1 (≈ 2.96 µM) | 2 (≈ 5.93 µM) |
